Measurements published in publication PMC7469199, “Immunosuppressive Activities of Novel PLA2 Inhibitors from Xenorhabdus hominickii, an Entomopathogenic Bacterium” (Insects, 2020).
pIC50: −log10 of the molar value. Read-outs that look alike come from different tables or passages of the source.

How the values were obtained:
mushroom tyrosinase = target: mushroom tyrosinase; set-up: method as in PMID 14714727; conditions: cited from earlier work
Sf9 cells = test: Cytotoxicity test (MTT); assay type: cell-based; conditions: for Cytotoxicity (MIC, minimum inhibitory concentration): MTT, 24 h at 28 °C
Description: Cytotoxicity of each secondary metabolite was evaluated by 3-(4,5 dimethylthiazol-2-yl)-2,5-diphenyl tetrazolium bromide (MTT) assay according to the method described by Mollah et al.. with a slight modification. Briefly, Sf9 cells (1.2 × 10^4 cells in 200 μL of TC-100 medium) were seeded into each 96-well. After adding each test chemical (2.5 μL in DMSO), the plate was incubated at 28 °C for 24 h. Control cells were treated with 2.5 μL of DMSO. After 24 h incubation, 10 μL of MTT (5 mg/mL in PBS) was added to each well and cells were cultured for another 4 h at 28 °C. Formazan granules formed in viable cells were dissolved in 50 μL of DMSO. Absorbance was then measured at 540 nm using a microplate reader (Victor Multilabel Plate Reader, PerkinElmer, Waltham, MA, USA).

cytosolic PLA2 (cPLA2) = test: Cytosolic PLA2 (cPLA2) activity; assay type: biochemical, Spodoptera exigua; conditions: for Median Inhibitory Concentrations (IC50), cPLA2: S. exigua, synthetic compounds
Description: (§1) To characterize PLA2 inhibition by test chemicals, activities of two different PLA2s [secretory PLA2 (sPLA2) and cytosolic PLA2 (cPLA2)] were assessed with methods described by Vatanparast et al..

[1] = test system: hemocyte nodule formation; test: Nodulation assay after E. coli injection in L5 larvae; assay type: in vivo, Spodoptera exigua; conditions: for Median Inhibitory Concentration (IC50), Nodulation: injected into L5 larvae with E. coli, nodules counted after 8 h
Description: To assess nodule formation, immune challenge was performed by injecting 3 µL of Escherichia coli Top10 (10^4 cells/larva) (Invitrogen, Madison, WI, USA) through the abdominal proleg of L5 larvae using a microsyringe (Hamilton, Reno, NV, USA). After incubating at 25 °C for 8 h, test insects were dissected to count the number of melanized nodules under a stereo microscope (Stemi SV11, Zeiss, Jena, Germany) at 50× magnification. For chemical test, 1 µL aliquot of test chemical at different concentrations was injected into each larva along with E. coli. AA was injected at 10 μg per larva. Each treatment was independently replicated five times.

S. exigua larvae [2] = test: Feeding toxicity, leaf-dipping method; assay type: in vivo, Spodoptera exigua; conditions: for Insecticidal Activities, Feeding: median lethal concentration by Probit analysis, leaf-dipping
Description: (§2) For the virulence test of X. hominickii, 24 h-cultured cells (10^8 cfu/mL) were diluted with sterile PBS. After surface sterilization with 95% ethanol, each L5 larva was injected with 1 µL of test compound (1 µg/larva) along with bacterial suspension (10^2 cfu/larva). Injection was performed through the first abdominal proleg using a micro syringe. Injected larvae were incubated at room temperature individually in 9 cm Petri dishes. For oral toxicity assay of B. thuringiensis, a small piece (2 × 2 cm) of Chinese cabbage was dipped in 500 ppm of Bt or a mixture of Bt (500 ppm) with 500 ppm of test chemical for 5 min. After a brief (5 min) drying under a dark condition, the treated leaf was supplied to individual test larva in 9 cm Petri dish for 24 h at room temperature. After 24 h, larvae were fed with fresh cabbage leaves. Each treatment was replicated three times with 10 larvae per replication. […] Larvae were considered dead if they were unable to move in a coordinated manner when prodded with a blunt probe.
(§3) All data for continuous variables were subjected to one-way analysis of variance (ANOVA) using PROG GLM in SAS program. Mortality data were subjected to arcsine transformation and used for ANOVA. Means were compared with the least significant difference (LSD) test at Type I error of 0.05. Median toxicity values such as median lethal dose (LD50), median lethal concentration (LC50), median lethal time (LT50), and median inhibition concentrations (IC50) were calculated by Probit analysis using EPA Probit Analysis Program, ver. 1.5 (U.S. Environmental Protection Agency, Washington, DC, USA).
These compounds were also tested for their feeding toxicities using a leaf-dipping method.

rabbits = conditions: cited from earlier work
[3] = test system: hemocyte phagocytosis of S. exigua; test: Phagocytosis assay with FITC-labeled E. coli in L5 larvae; assay type: in vivo, Spodoptera exigua; conditions: for Median Inhibitory Concentration (IC50), Phagocytosis: injected into L5 larvae with FITC-labeled E. coli
Description: For in vivo phagocytosis assay, test chemical (1 µL) and FITC-labeled E. coli (5 µL, 5 × 10^4 cells/µL) were injected to L5 larva. Hemolymph (50 µL) was collected at 15 min after injection and mixed with 50 µL of ice cold ACB. After centrifugation at 700 × g for 3 min at 4 °C, the supernatant plasma was replaced with 100 µL of TC-100 insect cell culture medium (Welgene, Daegu, Korea). Hemocyte suspension (10 µL) was placed onto a slide and over laid with 10 µL glycerol (50%, v/v). Hemocytes undergoing phagocytosis were determined by fluorescence-emitting cells under a fluorescence microscope (Leica, Wetzlar, Germany) at 40× magnification. For in vitro phagocytosis, hemocyte suspension and labeled bacteria mixture (30 µL) were incubated in a dark place for 1 h at room temperature. Hemocytes were then washed three times with PBS by centrifugation at 700× g for 2 min at 4 °C and finally resuspended in TC-100 medium. This hemocyte suspension was observed under the fluorescence microscope in FITC or DIC mode after forming monolayers on glass slides.

[4] = test system: hemocyte PLA2 of S. exigua; test: Nonspecific (total) hemocyte PLA2 activity, pyrene-labeled phospholipid fluorometric assay; assay type: biochemical, Spodoptera exigua; conditions: for Median Inhibitory Concentrations (IC50), Total PLA2: hemocyte extract of S. exigua L5 larvae, synthetic compounds
Description: Hemocyte PLA2 activity was fluorometrically determined with a pyrene-labeled phospholipid substrate using a spectrofluorometer (VICTOR multi-label plate reader, PerkinElmer, Waltham, MA, USA) at excitation and emission wavelengths of 345 and 398 nm, respectively. For measuring PLA2 activity, hemolymph was collected from ~10 L5 larvae. Hemocytes and plasma were separated by centrifugation at 800× g for 3 min at 4 °C. Hemocytes were then homogenized in 500 µL of PBS with a polytron (Ultra-Turrax T8, Ika Laboratory, Funkentshort, Germany). After centrifugation at 14,000× g for 5 min at 4 °C, protein concentration of the supernatant was determined by Bradford assay using bovine serum albumin (BSA) as the standard. The reaction mixture was prepared in a 96-well microplate by adding 129 μL of 50 mM Tris buffer (pH 7.0), 2 μL of 1 M CaCl2, and 2 μL of 10% BSA into each well. A sample solution consisted of 5 μL of test bacterial metabolites and 10 μL of hemocyte enzyme extract ([…]). The plate was then incubated at room temperature for 30 min. Enzyme reaction was then initiated by adding pyrene-labeled PL substrate (2 μL) to the reaction mixture.

S. exigua larvae [5] = test: Insecticidal activity by injection; assay type: in vivo, Spodoptera exigua; conditions: for Insecticidal Activities, Injection: median lethal dose by Probit analysis, S. exigua larvae
Description: as §3, with “USA). […]” for “USA).”

secretory PLA2 (sPLA2) = test: Secretory PLA2 (sPLA2) activity; assay type: biochemical, Spodoptera exigua; conditions: for Median Inhibitory Concentrations (IC50), sPLA2: S. exigua, synthetic compounds
Description: as §1

rats = conditions: cited from earlier work
mammals = conditions: oral administration; cited from earlier work
S. exigua larvae [6] = test: Effect on pathogenicity of X. hominickii (co-injection); assay type: in vivo, Spodoptera exigua; conditions: L5 larvae injected with Xh 10^2 cfu/larva along with inhibitor (5 µg/larva Fig. 7A; 2 µg/larva Fig. S6); 4 days after treatment
Description: as §2, with “After surface sterilization with 95% ethanol, each L5 larva was injected with 1 µL of test compound (1 µg/larva) along with bacterial suspension (10^2 cfu/larva).” left out

S. exigua larvae [7] = test: Effect on pathogenicity of Bacillus thuringiensis (oral, leaf dipping); assay type: in vivo, Spodoptera exigua; conditions: cabbage leaf dipped in Bt 500 ppm mixed with inhibitor 500 ppm; 4 days after treatment
Description: as §2

[8] = reference not printed with the value, next sentence cites ref 48

| SMILES | Cytotoxicity (MIC, minimum inhibitory concentration) (Sf9 cells) | Median Inhibitory Concentrations (IC50), cPLA2 (cytosolic PLA2 (cPLA2)) | Median Inhibitory Concentration (IC50), Nodulation [1] | Insecticidal Activities, Feeding (S. exigua larvae [2]) | Median Inhibitory Concentration (IC50), Phagocytosis [3] | Median Inhibitory Concentrations (IC50), Total PLA2 [4] | Insecticidal Activities, Injection (S. exigua larvae [5]) | Median Inhibitory Concentrations (IC50), sPLA2 (secretory PLA2 (sPLA2)) | further results |
| --- | --- | --- | --- | --- | --- | --- | --- | --- | --- |
| N#Cc1ccc(C(=O)O)cc1 [4-cyanobenzoic acid] | – | – | – | – | – | – | – | – | pIC50 (mushroom tyrosinase; diphenolase activity of mushroom tyrosinase, read-out: IC50 for diphenolase): 2.85; pIC50 (mushroom tyrosinase; monophenolase activity of mushroom tyrosinase, read-out: IC50 for monophenolase): 2.61 |
| CCCCC(CC)COC(=O)c1ccccc1C(=O)OCC(CC)CCCC (centres unmarked) [BEP, bis(2-ethylhexyl) phthalate] | 0.30 ± 0.01 d ^3 µg/mL | 0.09 ± 0.01 µg·days/mL | 1.0 ± 0.11 c ng/larva | 2679.58 ± 60.58 µg·days/mL | 1.50 ± 0.22 d ^2 ng/larva | 0.17 ± 0.01 cd ^2 µg/mL | 34.88 ± 2.08 bc µg/larva | 0.07 ± 0.01 ef µg/mL | Acute toxicity, dermal (rabbits; dermal application): 24 g/kg; Potency for inhibiting sPLA2 (in words) (secretory PLA2 (sPLA2); based on IC50 values): highly potent; Acute toxicity, oral (rats; oral administration): 30 g/kg |
| CCCCNCCCC [DBA, dibutylamine] | 0.80 ± 0.03 b µg/mL | 0.19 ± 0.02 c µg/mL | 0.71 ± 0.05 d ng/larva | 2969.46 ± 50.56 c µg/mL | 5.0 ± 0.58 c ng/larva | 0.18 ± 0.02 c µg/mL | 38.77 ± 3.26 b µg/larva | 0.11 ± 0.02 de µg/mL | Acute dermal toxicity (LD50) (rabbits; [8]): 7680 mg/kg; Acute oral toxicity (LD50) (rats; [8]): 1890 mg/kg |
| O=C1NC(=O)c2ccccc21 [PM, phthalimide] | 0.1 ± 0.01 f µg/mL | 0.04 ± 0.003 f µg/mL | 0.20 ± 0.02 f ng/larva | 2150.66 ± 50.07 f µg/mL | 0.40 ± 0.05f ng/larva | 0.05 ± 0.007 e µg/mL | 22.11 ± 2.69 d µg/larva | 0.17 ± 0.01 µg·days/mL | Concentration inducing cytotoxicity (Sf9 cells): less than 1 µg/mL; Potency for inhibiting cPLA2 (in words) (cytosolic PLA2 (cPLA2); based on IC50 values): highly potent; Inhibition of nodule formation (in words) ([1]; S. exigua L5 larvae, E. coli challenge): high potency; Feeding (oral) toxicity (in words) (S. exigua larvae [2]; leaf-dipping method): most potent; Inhibition of phagocytosis (in words) ([3]; S. exigua hemocytes): highly potent; Acute mammalian toxicity LD50 (mammals): > 5000 mg/kg; Effect on X. hominickii pathogenicity / insecticidal activity (S. exigua larvae [6]): significantly (p < 0.05) increased; Effect on B. thuringiensis insecticidal activity (S. exigua larvae [7]): significantly (p < 0.05) increased; Inhibitory activity against hemocyte PLA2 (in words) ([4]; S. exigua hemocyte PLA2, extracts, fractions or synthetic compounds): most potent; Killing of larvae after injection (in words) (S. exigua larvae [5]; individually injected to S. exigua larvae): most potent |
